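Following 48 hours of exposure in 96-well plates, responses at five concentrations were used to interpolate endpoints linearly. GI50 marks 50% less growth. TGI: total growth inhibition.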
Columns and labels:
Experiment in all cases: growth of human tumour cells (NCI), 48 h
[1] = system: SF-295 CNS
[2] = system: A549 NSCLC
[3] = system: SF-268 CNS
[4] = system: MOLT-4 leukemia
[5] = system: HT29 colon
[6] = system: HOP-92 NSCLC
[7] = system: SNB-19 CNS
[8] = system: MDA-MB-231 breast
[9] = system: SK-MEL-2 melanoma
[10] = system: IGROV1 ovarian

Row | SMILES | GI50 [1] [µM] | TGI [1] [µM] | GI50 [2] [µM] | TGI [2] [µM] | GI50 [3] [µM] | TGI [3] [µM] | GI50 [4] [µM] | TGI [4] [µM] | GI50 [5] [µM] | TGI [5] [µM] | GI50 [6] [µM] | TGI [6] [µM] | GI50 [7] [µM] | TGI [7] [µM] | GI50 [8] [µM] | TGI [8] [µM] | GI50 [9] [µM] | TGI [9] [µM] | GI50 [10] [µM] | TGI [10] [µM]
1 | Cn1cc(C2=C(c3cccc(N)c3)C(=O)NC2=O)c2ccccc21 | 3.93 | > 25 | 14.1 | > 25 | 24.6 | > 25 | 14.1 | > 25 | 13.1 | > 25 | > 25 | > 25 | > 25 | > 25 | 4.52 | > 25 | 14.3 | > 25 | > 22.4 | > 25
2 | Cc1cc(Cl)cc2c(N=Nc3ccccc3[N+](=O)[O-])c(O)[nH]c12 |  | > 100 |  | > 100 |  | > 100 |  | > 100 |  |  |  | > 100 |  | > 100 |  | > 100 |  | > 100 |  | > 100
3 | CCCCCCc1cc2cc(-c3nc4ccccc4[nH]3)c(=Nc3ccccc3C)oc2cc1O | 4.24 | 17.8 | 2.44 | 6.29 | 2.65 | 8.45 | 3.9 | 22.5 | > 100 | > 100 | 0.492 | 5.12 | 3.58 | 22 | 2.37 | 6.4 | 2.75 | 6.61 | 2.07 | 5.89
4 | Cc1nc(-c2ccccc2)c(Cc2ccccc2O)c(=O)[nH]1 |  | > 100 |  | > 100 |  | > 100 |  | > 100 |  | > 100 |  | > 100 |  | > 100 |  | > 100 |  | > 100 |  | > 100
5 | CCC1C(=O)OCc2c1cc1n(c2=O)Cc2cc3ccccc3nc2-1 (stereo not given) |  | > 33.7 |  | > 100 |  | > 100 |  | > 22 |  | > 100 |  | > 100 |  | > 100 |  | > 100 |  | > 100 |  | > 100
6 | COc1cc(-n2cc(-c3ccc(F)cc3)nc2SCc2ccccc2)cc(OC)c1OC | > 100 | > 100 | > 100 | > 100 | > 100 | > 100 | 89.2 | > 100 | 13.4 | > 100 | 1.48 | 37 | > 100 | > 100 | > 100 | > 100 | > 100 | > 100 | > 100 | > 100
7 | COc1cc2cc(C(=O)CCC(=O)O)sc2cc1OC | > 100 | > 100 | > 100 | > 100 | > 100 | > 100 | > 100 | > 100 | 54.6 | > 100 | 37.3 | > 100 | > 100 | > 100 | > 100 | > 100 | > 100 | > 100 | > 100 | > 100
8 | O=c1ccc(N=Nc2ccc([N+](=O)[O-])cc2)ccc1O | 4.57 | > 100 | 6.8 | > 100 | 4.18 | > 100 | 4.08 | > 100 | 5.71 | > 100 | 4.9 | > 100 | 4.14 | > 100 | 9.64 | 71.2 | 9.33 | 73.6 | 6.33 | > 100
9 | Oc1ccc(CN2CCC(N3CCOCC3)CC2)c2cccnc12 | 39.8 | > 100 | > 100 | > 100 | 16.3 | > 100 | 30.9 | > 100 | 100 | > 100 | 65.9 | > 100 | 43.9 | > 100 | 47.9 | > 100 | 52.8 | > 100 | 30.9 | > 100
10 | N#Cc1cccc(OCc2nc(N)nc(N)c2-c2ccc(Cl)c(Cl)c2)c1 | 0.46 | 14.3 | 0.426 | > 100 | 3.05 | > 100 | 2.83 | > 100 | 0.797 | > 100 | 1.82 | 9.06 | 4.28 | > 100 | 6.13 | > 100 | 6.68 | > 100 | 1.46 | > 100
11 | O=C(Nc1ccc(F)cc1)Nc1ccccc1CNc1nc(Nc2ccc(OCCN3CCCC3)cc2)ncc1Cl | 1.97 | 7.67 | 2.72 | 20.9 | 1.26 | 4.84 | 1.53 | 4.74 | 1.49 | 50 | 0.849 | 2.49 | 3 | 11.1 | 0.871 | 1.77 | 8.7 | 18.4 | 5.27 | 13.3
12 | Clc1cc2c(cc1Cl)Oc1cc(Cl)c(Cl)cc1O2 |  |  |  |  | > 0.625 | > 0.625 | > 0.625 | > 0.625 | > 0.625 | > 0.625 | > 0.625 | > 0.625 | > 0.625 | > 0.625 | > 0.625 | > 0.625 | > 0.625 | > 0.625 | > 0.625 | > 0.625
13 | Nc1ccccc1-c1ccc([N+](=O)[O-])cc1 | 2.18 | 64.8 | 4.65 | > 100 | 12.9 | > 100 | 4.28 | > 100 | 54.4 | > 100 | 17.9 | 97.6 | 24.2 | > 100 | 36.3 | > 100 | > 100 | > 100 | 19 | > 100
14 | CC/C(=C(/c1ccc(OCCN(C)C)cc1)c1ccc(OC(=O)CCC(=O)c2c(C)[nH]c(/C=C3\N=C(c4ccc[nH]4)C=C3OC)c2C)cc1)c1ccccc1 | 2.61 | 9.06 | 2.63 | 10.6 | 2.62 | 17.8 | 0.974 | 4.25 | 0.438 | 11.1 | 0.749 | 4.13 | 5.49 | 21.8 | 0.441 | 2.38 | 2.42 | 6.2 | 3.65 | 15.4
